The record followed here is patent publication US20100143379A1 (priority 2005, published 2010).

Common to all, as to format: cell-based
In assay [1] the test system is CD44. Description: CD44 phospho-serine sandwich ELISA. The settings on record: H-89, 20 μM; RO-31-2880, 10 μM. The procedure: (§1) FIGS. 12A-12E show the phosphoserine content of CD74 and CD44 measured by ELISA. […] The ELISA values represent the mean±SD of triplicate measurements. Experiments were replicated twice. *P<0.02 versus corresponding control (Student's T test, two-tailed). […] Cell lysates were prepared and probed for PKA and PKC using phospho-specific, and total anti-PKA and anti-PKC antibodies.
Ser325 is constitutively phosphorylated in resting cells, but undergoes de-phosphorylation in response to PKC activating stimuli such as phorbol esters. […] The effect of MIF-stimulation CD44 phosphorylation was analyzed in the COS-7 and MEF cell lines by sandwich ELISA using an anti-CD44 capture antibody to quantify CD44 phospho-serine residues (Perez et al. (2003). Nature Immunol. 4:1083-92). […]
The serine phosphorylation of CD74 and CD44 was quantified by specific sandwich ELISA (Perez et al. (2003). Nature Immunol 4:1083-92). […] After several washes (0.5% Tween-20 in PBS), 0.2 μg/ml anti-phospho-serine antibody (Hypromatrix) conjugated with horseradish peroxidase was added, and immunoreactivity measured by the TMB reagent (DakoCytomation) and the data analyzed with SpectraMax Plus (Molecular Devices). […]

Assay [2] concerns CD74. Description: CD74 phospho-serine sandwich ELISA. The settings on record: H-89 20 μM; RO-31-2880 10 μM; COS-7/CD74+CD44. The procedure:
as §1
The observation that the phosphoserine content of CD74 increased only in cells that expressed CD74 and full-length CD44 is consistent with the notion that the MIF-mediated phosphorylation of CD74 is dependent on the activity of the CD44 intracytoplasmic domain.
The serine phosphorylation of CD74 and CD44 was quantified by specific sandwich ELISA (Perez et al. (2003). Nature Immunol 4:1083-92). […] After several washes (0.5% Tween-20 in PBS), 0.2 μg/ml anti-phospho-serine antibody (Hypromatrix) conjugated with horseradish peroxidase was added, and immunoreactivity measured by the TMB reagent (DakoCytomation) and the data analyzed with SpectraMax Plus (Molecular Devices).
Cell lysates were collected and analyzed by immunoblots using a pair of anti-phospho-PICA and anti-(total)-PKA antibodies, a pair of anti-phospho-PKC (all from Cell Signaling) and anti-(total)-PKC (Santa Cruz) antibodies, or a pair of anti-phospho-p56^lck (Cell Signaling) and anti-(total) p56^lck (sc-433, Santa Cruz) antibodies.
In general terms: An ELISA detects its analyte on a solid surface through an enzyme-linked reagent.

In assay [3] the test system is ERK-1/2. Description: ERK-1/2 phosphorylation in COS-7/M6 stable transformants (Western blot). The settings on record: 20 nM; COS-7/CD74+CD44 cell line or primary macrophages. (In western blotting, separated proteins are transferred to a membrane and probed.)
Assay [4] concerns murine bone marrow progenitor cultures. As to the kind of experiment: BFU-E and CFU-E erythropoietin-dependent progenitor colony assays. The conditions noted are these: 10-100 ng/ml MIF, 1-20 ng/ml TNFα, or 10-100 U/ml IFNγ. The procedure: Bone marrow cells were harvested, plated in a methylcellulose-based medium, and colony numbers scored after the addition of murine cytokines. Individual assays were performed in duplicate, and the data shown is a compilation of 3-6 independently performed experiments. % inhibition of colony formation is calculated with reference to a cytokine-minus control. All values shown are the mean±SD and are significant when compared to wells with no cytokine addition (P<0.05). CFU-E: colony forming unit—erythroid; BFU-E: burst-forming unit—erythroid.
The two inflammatory cytokines, TNFα and IFNγ, were also studied. TNFα and IFNγ are produced as a consequence of macrophage and T cell activation (McDevitt et al. 2004. Curr Hematol Rep 3:97-106). The appearance of BFU-E and CFU-E were quantified after culture with these cytokines, applied either alone or in combination.
BFU-E and CFU-E Progenitor Cell Assays. The progenitor cell (colony) assays were performed according to the standardized methods described previously (Martiney et al. 2000. Infection and Immunity 68:2259-2267) and protocols from StemCell Technologies (Vancouver; BC, Canada). Briefly, washed murine bone marrow cells were plated in sterile 35-mm dishes containing a methylcellulose-based medium and growth factors. The total number of bone marrow cells plated in duplicate culture dishes were as follows: 2×10^5 for CFU-E and 5×10^5 for BFU-E. MethoCult™ M3334 was utilized for the CFU-E and BFU-E colony assays. The media for CFU-E and BFU-E was volume adjusted by adding 1 part Isocove's MDM to 9 parts MethoCult™ M3334 to give final concentrations of the following components: 15% fetal bovine serum, 1% BSA, […] transferrin, […] insulin, 1% methylcellulose, 10^−4 M 2-mercaptoethanol, 2 mM L-glutamine and 3 units/ml erythropoietin. Each assay of different bone marrow progenitor cells was performed independently 3-6 times.

For assay [5], the system named is HIV-1ADA. Description: HIV-1 replication in monocyte-derived macrophage cultures (RT activity). The conditions noted are these: polymyxin B 10 μg/ml added to MIF 50 ng/ml. The procedure:
Triplicate cultures of monocyte-derived macrophages were infected with HIV-1ADA in the presence of anti-MIF MAb (25 μg/ml) or isotype control. Virus replication was monitored by RT activity in culture supernatants. Results are presented as mean±SD. […] Control cultures were cultivated with PMB mixed with an isotype immunoglobulin with or without MIF.
To investigate this possibility, HIV-infected macrophages were cultured in the presence of a neutralizing anti-MIF antibody or isotype control. Triplicate cultures of monocyte-derived macrophages were infected with HIV-1ADA in the presence of anti-MIF MAb (25 μg/ml) or isotype control. Virus replication was monitored by RT activity in culture supernatants. […] Control cultures were cultivated with PMB mixed with an isotype immunoglobulin with or without MIF.

`O=S(=O)(NCCNC/C=C/c1ccc(Br)cc1)c1cccc2cnccc12` [H-89, reference compound]: the “serine phosphorylation of CD44 after MIF stimulation in presence of kinase inhibitor” value in assay [1] is on record as “reduced by PKA inhibition”. The “MIF stimulation of CD74 phosphorylation in presence of kinase inhibitor” value in assay [2] is “decreased markedly”.
Consider `COc1c(C=O)c(O)cc2c1C(=O)c1ccccc1C2=O` [damnacanthal, reference compound], for which, in assay [3], the “phosphorylation of ERK1/2” value is “inhibition of the phosphorylation of p56^lck and ERK1/2”.
Take TNFα: the “BFU-E and CFU-E colony formation” value in assay [4] is reported as “dose-dependently inhibited”.
On to polymyxin B [reference compound], for which the “inhibitory effect of MIF on viral replication” value in assay [5] was “did not significantly reduce the inhibitory effect of MIF”.

B1: IFNγ: Recombinant mouse IFN-γ from R&D Systems (protein, UniProt P01580 23-155, looked up)
Interferon gamma: HGTVIESLESLNNYFNSSGIDVEEKSLFLDIWRNWQKDGDMKILQSQIISFYLRLFEVLKDNQAISNNISVIESHLITTFFSNSKAKKDAFMSIAKFEVNNPQVQRQAFNELIRVVHQLLPESSLRKRKRSRC
With B1, the “BFU-E and CFU-E colony formation” value in assay [4] was “dose-dependently inhibited”.
